Data published in ChEMBL document CHEMBL5247648, “Design, Synthesis, and Anti-Cancer Evaluation of Novel Cyclic Phosphate Prodrug of Gemcitabine” (J Med Chem, 2023).
Calls of active or inactive are those of the source. The rule behind the calls is not given here.

Legend:
Huh-7 = test: Antiproliferative activity against human Huh-7 cells assessed as inhibition of cell proliferation treated for 72 hrs by resazurin dye-based fluorescence assay; type: functional; settings: Huh-7, 72 h
BXPC-3 [1] = test: Induction of apoptosis in human BXPC-3 cells assessed as late cells at 50 nM incubated for 24 hrs by […] (reference value: 1.24 %); type: functional
BXPC-3 [2] = test: Induction of apoptosis in human BXPC-3 cells assessed as late cells at 100 nM incubated for 24 hrs by […] (reference value: 1.24 %); type: functional
[3] = Metabolic stability in rat plasma assessed as half life incubated for 6 hrs by HPLC analysis; type: ADME, cell-free
BXPC-3 [4] = test: Antiproliferative activity against human BXPC-3 cells assessed as inhibition of cell proliferation treated for 72 hrs by resazurin dye-based fluorescence assay; type: functional; settings: BXPC-3, 72 h
[5] = Cmax in Beagle dog at 1 mg/kg, iv measured for 0.083 to 24 hrs by LC-MS/MS analysis; type: ADME, organism-based, Canis lupus familiaris; design: time upper 24 hrs, time lower 0.083 hrs, dose 1 mg/kg, route iv; settings: in vivo
BXPC-3 [6] = test: In vivo antitumor activity against human BXPC-3 cells xenografted in nude Balb/c mouse assessed as tumor growth inhibition at 50 to 80 mg/kg, ip measured after 28 days; type: functional, organism-based; settings: dose 50-80 mg/kg, time 28.0 day
[7] = Prodrug conversion in human plasma assessed as mixture of benzyl 2-(((((2R,3R,5R)-5-(4-amino-2-oxopyrimidin-1(2H)-yl)-4,4-difluoro-3-hydroxytetrahydrofuran-2-yl)methoxy)(hydroxy)phosphoryl)oxy)acetate and benzyl 2-(((((2R,3R,5R)-5-(4-amino-2-oxopyrimidin-1(2H)-yl)-4,4-difluoro-2-(hydroxymethyl)tetrahydrofuran-3-yl)oxy)(hydroxy)phosphoryl)oxy)acetate metabolites formation incubated for 72 hrs by LC-MS analysis; type: ADME, cell-free
BXPC-3 [8] = test: Upregulation of cleaved caspase-3 expression in human BXPC-3 cells at 25 to 100 nM incubated for 24 hrs by Western blot analysis; type: functional, cell-based; settings: dose 25-100 nM
[9] = Prodrug conversion in human plasma assessed as mixture of benzyl 2-(((((2R,3R,5R)-5-(4-amino-2-oxopyrimidin-1(2H)-yl)-4,4-difluoro-3-hydroxytetrahydrofuran-2-yl)methoxy)(hydroxy)phosphoryl)oxy)acetate and benzyl 2-(((((2R,3R,5R)-5-(4-amino-2-oxopyrimidin-1(2H)-yl)-4,4-difluoro-2-(hydroxymethyl)tetrahydrofuran-3-yl)oxy)(hydroxy)phosphoryl)oxy)acetate metabolites formation incubated for 72 hrs by 1H-NMR analysis; type: ADME, cell-free
[10] = Clearance in Beagle dog at 1 mg/kg, iv measured for 0.083 to 24 hrs by LC-MS/MS analysis; type: ADME, organism-based, Canis lupus familiaris; settings: in vivo, time 0.083-24 hrs
BXPC-3 [11] = test: Induction of apoptosis in human BXPC-3 cells assessed as early cells at 50 nM incubated for 24 hrs by […] (reference value: 1.68 %); type: functional
CWR22R [12] = test: Antiproliferative activity against human 22Rv1 cells assessed as inhibition of cell proliferation treated for 72 hrs by resazurin dye-based fluorescence assay; type: functional; settings: 22Rv1, 72 h
[13] = Metabolic stability in human plasma assessed as half life incubated for 6 hrs by HPLC analysis; type: ADME, cell-free
BXPC-3 [14] = test: Induction of apoptosis in human BXPC-3 cells assessed as necrotic cells at 50 nM incubated for 24 hrs by […] (reference value: 3.57 %); type: functional
BXPC-3 [15] = test: Cell cycle arrest in human BXPC-3 cells assessed as cell accumulation at S phase at 25 to 100 nM incubated for 24 hrs by flow cytometry; type: functional, cell-based; settings: dose 25-100 nM
BXPC-3 [16] = test: Induction of apoptosis in human BXPC-3 cells assessed as early cells at 25 nM incubated for 24 hrs by […] (reference value: 1.68 %); type: functional
[17] = Toxicity in nude Balb/c mouse xenografted with human BXPC-3 cells assessed as apparent signs of toxicity at 50 to 80 mg/kg, ip measured after 28 days; type: organism-based; settings: in vivo, 672 h, dose 50-80 mg/kg, time 28 day
JeKo-1 = test: Antiproliferative activity against human JeKo-1 cells assessed as inhibition of cell proliferation treated for 72 hrs by resazurin dye-based fluorescence assay; type: functional; settings: JeKo-1, 72 h
[18] = Toxicity in castrated male nude Balb/c mouse xenografted with human 22Rv1 cells assessed as toxic signs at 50 mg/kg, ip administered twice a week measured after 28 days; type: organism-based, CWR22R; settings: in vivo, 672 h, time 28 day
CWR22R [19] = test: Antiproliferation activity against human 22Rv1 cells xenografted in castrated male nude Balb/c mouse assessed as downregulation of Ki-67 level at 50 mg/kg, ip administered twice a week measured after 28 days by immunohistochemical assay relative to control; type: functional, organism-based; settings: time 28.0 day
CWR22R [20] = test: In vivo antitumor activity against human 22Rv1 cells xenografted in castrated male nude Balb/c mouse assessed as relative increment ratio at 50 mg/kg, ip administered twice a week measured after 28 days relative to control; type: functional; settings: time 28 day
MIA PaCa-2 = test: Antiproliferative activity against human MIA PaCa-2 cells assessed as inhibition of cell proliferation treated for 72 hrs by resazurin dye-based fluorescence assay; type: functional; settings: MIA PaCa-2, 72 h
[21] = Metabolic stability in beagle dog plasma assessed as half life incubated for 6 hrs by HPLC analysis; type: ADME, cell-free, Canis lupus familiaris
[22] = Half life in Beagle dog at 1 mg/kg, iv measured for 0.083 to 24 hrs by LC-MS/MS analysis; type: ADME, organism-based, Canis lupus familiaris; settings: in vivo, time 0.083-24 hrs
MV4-11 = test: Antiproliferative activity against human MV4-11 cells assessed as inhibition of cell proliferation treated for 72 hrs by resazurin dye-based fluorescence assay; type: functional; settings: MV4-11, 72 h
BXPC-3 [23] = test: Induction of apoptosis in human BXPC-3 cells assessed as late cells at 25 nM incubated for 24 hrs by […] (reference value: 1.24 %); type: functional
BXPC-3 [24] = test: Induction of apoptosis in human BXPC-3 cells assessed as viable cells at 50 nM incubated for 24 hrs by […] (reference value: 93.51 %); type: functional; settings: read-out: Activity
MM1.S = test: Antiproliferative activity against human MM1.S cells assessed as inhibition of cell proliferation treated for 72 hrs by resazurin dye-based fluorescence assay; type: functional
[25] = Prodrug conversion in human plasma assessed as mixture of benzyl 2-(((((2R,3R,5R)-5-(4-amino-2-oxopyrimidin-1(2H)-yl)-4,4-difluoro-3-hydroxytetrahydrofuran-2-yl)methoxy)(hydroxy)phosphoryl)oxy)acetate and benzyl 2-(((((2R,3R,5R)-5-(4-amino-2-oxopyrimidin-1(2H)-yl)-4,4-difluoro-2-(hydroxymethyl)tetrahydrofuran-3-yl)oxy)(hydroxy)phosphoryl)oxy)acetate metabolites formation incubated for 72 hrs by 31P-NMR analysis; type: ADME, cell-free
CWR22R [26] = test: In vivo antitumor activity against human 22Rv1 cells xenografted in castrated male nude Balb/c mouse assessed as tumor growth inhibition at 50 mg/kg, ip administered twice a week measured after 28 days relative to control; type: functional; settings: 22Rv1, 672 h, time 28 day, read-out: TGI
[27] = Toxicity in castrated male nude Balb/c mouse xenografted with human 22Rv1 cells assessed as tolerance at 50 mg/kg, ip administered twice a week measured after 28 days; type: organism-based, CWR22R; settings: in vivo, 672 h, time 28 day
[28] = Toxicity in castrated male nude Balb/c mouse xenografted with human 22Rv1 cells assessed as animal weight loss at 50 mg/kg, ip administered twice a week measured after 28 days; type: organism-based, CWR22R; settings: in vivo, 672 h, time 28 day
BXPC-3 [29] = test: Upregulation of P21 WAF1/Cip1 expression in human BXPC-3 cells at 25 to 100 nM incubated for 24 hrs by Western blot analysis; type: functional, cell-based; settings: dose 25-100 nM
[30] = AUC (0 to infinity) in Beagle dog at 1 mg/kg, iv measured for 0.083 to 24 hrs by LC-MS/MS analysis; type: ADME, organism-based, Canis lupus familiaris; design: time upper 24 hrs, time lower 0.083 hrs, dose 1 mg/kg, route iv; settings: in vivo
BXPC-3 [31] = test: Induction of apoptosis in human BXPC-3 cells assessed as necrotic cells at 25 nM incubated for 24 hrs by […] (reference value: 3.57 %); type: functional
BXPC-3 [32] = test: Induction of apoptosis in human BXPC-3 cells assessed as early cells at 100 nM incubated for 24 hrs by […] (reference value: 1.68 %); type: functional
[33] = Prodrug conversion in human plasma assessed as metabolites formation incubated for 24 hrs by 31P-NMR analysis; type: ADME, cell-free
BXPC-3 [34] = test: Induction of apoptosis in human BXPC-3 cells assessed as necrotic cells at 100 nM incubated for 24 hrs by […] (reference value: 3.57 %); type: functional
BXPC-3 [35] = test: Induction of apoptosis in human BXPC-3 cells assessed as viable cells at 100 nM incubated for 24 hrs by […] (reference value: 93.51 %); type: functional; settings: read-out: Activity
BXPC-3 [36] = test: Induction of apoptosis in human BXPC-3 cells assessed as viable cells at 25 nM incubated for 24 hrs by […] (reference value: 93.51 %); type: functional; settings: read-out: Activity

Nc1ccn([C@@H]2O[C@@H]3COP(=O)(OCC(=O)OCc4ccccc4)O[C@H]3C2(F)F)c(=O)n1 (stereo partly specified)
IC50 (Huh-7): 16.2 nM | Activity (BXPC-3 [1]): 2.73% | Activity (BXPC-3 [2]): 3.48% | half-life [3]: 40 min | IC50 (BXPC-3 [4]): 16.5 nM | Cmax [5]: 3600 ng/mL | Activity (BXPC-3 [6]): Active | Drug metabolism [7]: Metabolite_Detected | Activity (BXPC-3 [8]): inactive | Drug metabolism [9]: Metabolite_Detected | clearance [10]: 32.5 mL/min/kg | Activity (BXPC-3 [11]): 3.19% | IC50 (CWR22R [12]): 10.6 nM | half-life [13]: 40 min | Activity (BXPC-3 [14]): 4.02% | Activity (BXPC-3 [15]): Active | Activity (BXPC-3 [16]): 2.87% | Activity [17]: Non-Toxic | IC50 (JeKo-1): 19.2 nM | Activity [18]: Non-Toxic | Activity (CWR22R [19]): Active | T/C (CWR22R [20]): 35.2% | IC50 (MIA PaCa-2): 12.5 nM | half-life [21]: 40 min | half-life [22]: 7.2 min | IC50 (MV4-11): 5.4 nM | Activity (BXPC-3 [23]): 2.31% | viability at 0.05 µM (BXPC-3 [24]): 90.1% | IC50 (MM1.S): 3.6 nM | Drug metabolism [25]: Metabolite_Detected | inhibition in vivo at 50 mg/kg (CWR22R [26]): 68.5% | Activity [27]: Non-Toxic | Activity [28]: Non-Toxic | Activity (BXPC-3 [29]): Active | AUC(0-inf) [30]: 520 ng·h/mL | Activity (BXPC-3 [31]): 3.17% | Activity (BXPC-3 [32]): 3.5% | Drug metabolism [33]: Metabolite_Detected | Activity (BXPC-3 [34]): 4.42% | viability at 0.1 µM (BXPC-3 [35]): 88.6% | viability at 0.025 µM (BXPC-3 [36]): 91.7%
